Test results published in patent US4771062A, “Diaryl sulphide derivatives” (Bayer Aktiengesellschaft, priority 1986, dated 1988).
Where a name gives a salt, the structure may show the parent alone.

target: T1, lipoxygenase activity of PMN (Rattus norvegicus, UniProt P12527); assay: LTB4 formed after stimulation with Ca-ionophor, determined by reversed phase HPLC, as a measure of the lipoxygenase activity of PMN; format: cell-based, rats; details: LTB4 formation, Ca-ionophor stimulated rat PMN
T1 construct: lipoxygenase activity of PMN in rats; endogenous in cells; host or cells: rat PMN (polymorphonuclear leucocytes)
T1 sequence (P12527 1-673): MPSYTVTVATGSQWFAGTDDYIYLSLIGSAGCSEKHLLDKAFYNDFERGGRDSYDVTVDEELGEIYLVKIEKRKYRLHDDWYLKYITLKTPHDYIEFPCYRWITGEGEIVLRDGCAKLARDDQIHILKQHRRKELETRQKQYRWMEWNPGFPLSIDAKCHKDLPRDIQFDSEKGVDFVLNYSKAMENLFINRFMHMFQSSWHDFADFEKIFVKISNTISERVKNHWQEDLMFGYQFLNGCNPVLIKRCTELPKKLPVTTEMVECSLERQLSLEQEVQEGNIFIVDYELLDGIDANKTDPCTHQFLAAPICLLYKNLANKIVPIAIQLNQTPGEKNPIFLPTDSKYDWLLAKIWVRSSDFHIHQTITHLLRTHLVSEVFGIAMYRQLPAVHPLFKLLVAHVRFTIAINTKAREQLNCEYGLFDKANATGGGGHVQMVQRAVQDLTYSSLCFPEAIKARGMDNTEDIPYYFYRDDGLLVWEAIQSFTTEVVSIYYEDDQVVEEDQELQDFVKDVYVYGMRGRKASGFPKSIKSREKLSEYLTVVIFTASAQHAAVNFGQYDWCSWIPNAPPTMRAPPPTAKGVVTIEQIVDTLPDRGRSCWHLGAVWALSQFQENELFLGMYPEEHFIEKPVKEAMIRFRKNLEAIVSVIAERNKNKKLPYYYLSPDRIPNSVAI
Description: The pharmacological action of the substances according to the invention was determined by the following method:
The leucotriene B4 (LTB4) formed after stimulation with Ca-ionophor is determined by means of reversed phase HPLC in accordance with the method of Borgeat et al. Proc. Natl. Acad. Sci. USA, 76, 215 (1982) as a measure of the lipoxygenase activity of PMN in rats.

| Structure (SMILES) | IC50 [µM] |
| --- | --- |
| c1cc(Sc2ccc(NC3=NCCS3)cc2)ccc1NC1=NCCS1 [Example 2, Bis[4-(Δ^2-thiazolin-2-yl)aminophenyl]sulphide] | 0.349 |
| c1cc(Sc2ccc(NC3=NCCS3)cc2)ccc1NC1=NCCS1 [Example 3, Bis[4-(Δ^2-thiazolin-2-yl)aminophenyl]sulphide HCl salt] | 0.776 |
| c1ccc(C2CSC(Nc3ccc(Sc4ccc(NC5=NC(c6ccccc6)CS5)cc4)cc3)=N2)cc1 (stereo not drawn) [Example 4, Bis[4-(4-phenyl-Δ^2-thiazolin-2-yl)aminophenyl]sulphide] | 0.501 |
| COC(=O)Cc1cc(NC2=NCCS2)ccc1Sc1ccccc1 [Example 10, Methyl[2-phenylthio-5-(Δ^2-thiazolin-2-yl)amino]phenylacetate] | 0.209 |
| CN1CCSC1=Nc1ccc(Sc2ccc(N=C3SCCN3C)cc2)cc1 [Example 17, Bis[4-(3-methyl-thiazolidin-2-imino)phenyl]sulphide] | 0.265 |

These reach a lower IC50. Values come first.

| IC50 [µM] | Structure (SMILES) |
| --- | --- |
| 0.0978 | c1ccc(Sc2ccc(NC3=NCCS3)cc2)cc1 [Example 12] |
| 0.123 | CC1CN=C(Nc2ccc(Sc3ccc(NC4=NCC(C)S4)cc3)cc2)S1 (stereo not drawn) [Example 22, Bis[4-(5-methyl-Δ^2-thiazolin-2-yl)aminophenyl]sulphide] |
| 0.145 | Cc1ccc(S(=O)(=O)Nc2ccc(Sc3ccc(NC4=NCCS4)cc3)cc2)cc1 [Example 29, 4-(Δ^2 -Thiazolin-2-yl)amino-4'-tosylaminodiphenyl sulphide] |

tested on: not listed separately; assay: appearance of the isolated salt in air (hygroscopicity); format: physicochemical; details: after lyophilization
Description: 3 g of bis[4-(Δ^2 -thiazolin-2-yl)aminophenyl]sulphide are taken up in 0.6 ml of 1N HCl and 10 ml of H2 O and the mixture is lyophilized.

| Structure (SMILES) | hygroscopicity |
| --- | --- |
| c1cc(Sc2ccc(NC3=NCCS3)cc2)ccc1NC1=NCCS1 [Example 3, Bis[4-(Δ^2-thiazolin-2-yl)aminophenyl]sulphide HCl salt] | Hygroscopic crystals which deliquesce in air |
